The text below walks through data of patent publication US20240059673A1, “SUBSTITUTED INDOLE COMPOUNDS” (Gilead Sciences, Inc., priority 2020, published 2024).

pEC50: −log10 of the molar value. Read-outs that look alike come from different tables or passages of the source.

Experiment [1] deals with T1, TLR9 (Homo sapiens, UniProt Q9NR96).
T1 construct: lymphocytes, monocytes and dendritic cells that express TLR7, TLR8 and TLR9; endogenous in cells; host or cells: cryopreserved human PBMCs from healthy donors
T1 sequence (Q9NR96 26-1032): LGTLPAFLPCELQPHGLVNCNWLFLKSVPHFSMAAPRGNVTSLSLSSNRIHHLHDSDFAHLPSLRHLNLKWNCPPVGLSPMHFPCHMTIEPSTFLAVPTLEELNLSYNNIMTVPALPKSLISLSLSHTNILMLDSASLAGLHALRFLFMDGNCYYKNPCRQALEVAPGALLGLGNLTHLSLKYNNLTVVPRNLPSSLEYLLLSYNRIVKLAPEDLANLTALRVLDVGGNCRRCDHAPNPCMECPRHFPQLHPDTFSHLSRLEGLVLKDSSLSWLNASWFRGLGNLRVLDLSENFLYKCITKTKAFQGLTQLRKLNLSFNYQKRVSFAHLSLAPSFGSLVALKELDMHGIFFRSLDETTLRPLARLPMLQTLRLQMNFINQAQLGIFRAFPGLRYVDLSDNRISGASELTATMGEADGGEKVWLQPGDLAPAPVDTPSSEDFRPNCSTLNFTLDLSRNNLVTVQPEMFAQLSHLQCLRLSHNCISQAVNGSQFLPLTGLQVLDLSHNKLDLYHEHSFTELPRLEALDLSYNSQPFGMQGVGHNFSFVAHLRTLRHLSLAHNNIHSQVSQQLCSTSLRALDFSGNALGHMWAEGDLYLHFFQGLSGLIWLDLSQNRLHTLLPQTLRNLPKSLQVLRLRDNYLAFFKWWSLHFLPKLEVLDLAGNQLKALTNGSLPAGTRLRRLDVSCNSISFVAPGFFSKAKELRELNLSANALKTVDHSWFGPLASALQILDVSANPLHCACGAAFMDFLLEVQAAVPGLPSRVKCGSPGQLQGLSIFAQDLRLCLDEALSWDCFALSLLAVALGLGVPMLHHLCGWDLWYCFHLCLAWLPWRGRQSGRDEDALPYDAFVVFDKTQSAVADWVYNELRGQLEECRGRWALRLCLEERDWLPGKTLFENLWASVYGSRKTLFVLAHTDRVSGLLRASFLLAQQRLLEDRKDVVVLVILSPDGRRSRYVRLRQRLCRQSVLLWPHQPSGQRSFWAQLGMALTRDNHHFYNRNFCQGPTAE
As to the kind of experiment: Human PBMC cell-based assay, TLR9 agonist stimulation. The following applies: human PBMCs, read-out: TLR-9 EC50. An excerpt: (§1) Human Peripheral Blood Mononuclear Cell (PBMC) Cell-Based Assay
(§2) Human peripheral blood mononuclear cells (PBMCs) consist of lymphocytes, monocytes and dendritic cells that express TLR7, TLR8 and TLR9. These cells respond to TLR7, TLR8 and TLR9 ligand stimulation and produce cytokines and chemokines in vitro and in vivo. Human PBMCs are therefore suitable to be used in a cell-based assay to assess the in vitro potency of a TLR 7, 8, and/or 9 antagonist. The result is expected to be more translatable to the pharmacodynamics response in vivo than cell line-based assays.
(§3) Cryopreserved human PBMCs from healthy donors were thawed and resuspended in RPMI-1640 media with L-glutamine (Corning) supplemented with 10% Fetal Bovine Serum (Hyclone) and 1× Penicillin-Streptomycin (Corning). After counting, the cell density was adjusted to 2 million cells/ml and incubated for 1 hour at 37° C., 5% CO2 for recovery. Following the recovery, the cells were plated by adding 50p per well (100,000 cells) to 384-well cell culture plates (Greiner) containing 250 nl of test antagonists in 100% DMSO per well, in a 10 points dose response in quadruplicates. PBMCs were incubated in the presence of test antagonists for one hour at 37° C., 5% CO2 before being stimulated with a TLR7 or TLR9 agonist. GS-986 (Gilead Sciences) was used as the TLR7 agonist at a final concentration of 400 nM. ODN-2216 (InvivoGen) was used as the TLR9 agonist at a final concentration of 3μM. PBMCs were incubated in the presence of the test antagonist and the TLR7 (or TLR9) agonist for an additional 6 hours at 37° C., 5% CO2. At the end of the incubation, the cell culture plates were centrifuged at 500 g for 5 min, and the cell culture supernatant was collected. The level of cytokines (IL-6 and IFNα) in the supernatant was measured by electrochemiluminescence immunoassays (Mesoscale Discovery) following manufacturer's recommended protocols. The level of cytokine measured was plotted against the test antagonist concentration and fitted to a sigmoidal function to determine the EC50, which are shown below in Table 2.

Experiment [2] concerns the target T2, TLR7 (Homo sapiens, UniProt Q9NYK1).
T2 construct: lymphocytes, monocytes and dendritic cells that express TLR7, TLR8 and TLR9; endogenous in cells; host or cells: cryopreserved human PBMCs from healthy donors
T2 sequence (Q9NYK1 27-1049): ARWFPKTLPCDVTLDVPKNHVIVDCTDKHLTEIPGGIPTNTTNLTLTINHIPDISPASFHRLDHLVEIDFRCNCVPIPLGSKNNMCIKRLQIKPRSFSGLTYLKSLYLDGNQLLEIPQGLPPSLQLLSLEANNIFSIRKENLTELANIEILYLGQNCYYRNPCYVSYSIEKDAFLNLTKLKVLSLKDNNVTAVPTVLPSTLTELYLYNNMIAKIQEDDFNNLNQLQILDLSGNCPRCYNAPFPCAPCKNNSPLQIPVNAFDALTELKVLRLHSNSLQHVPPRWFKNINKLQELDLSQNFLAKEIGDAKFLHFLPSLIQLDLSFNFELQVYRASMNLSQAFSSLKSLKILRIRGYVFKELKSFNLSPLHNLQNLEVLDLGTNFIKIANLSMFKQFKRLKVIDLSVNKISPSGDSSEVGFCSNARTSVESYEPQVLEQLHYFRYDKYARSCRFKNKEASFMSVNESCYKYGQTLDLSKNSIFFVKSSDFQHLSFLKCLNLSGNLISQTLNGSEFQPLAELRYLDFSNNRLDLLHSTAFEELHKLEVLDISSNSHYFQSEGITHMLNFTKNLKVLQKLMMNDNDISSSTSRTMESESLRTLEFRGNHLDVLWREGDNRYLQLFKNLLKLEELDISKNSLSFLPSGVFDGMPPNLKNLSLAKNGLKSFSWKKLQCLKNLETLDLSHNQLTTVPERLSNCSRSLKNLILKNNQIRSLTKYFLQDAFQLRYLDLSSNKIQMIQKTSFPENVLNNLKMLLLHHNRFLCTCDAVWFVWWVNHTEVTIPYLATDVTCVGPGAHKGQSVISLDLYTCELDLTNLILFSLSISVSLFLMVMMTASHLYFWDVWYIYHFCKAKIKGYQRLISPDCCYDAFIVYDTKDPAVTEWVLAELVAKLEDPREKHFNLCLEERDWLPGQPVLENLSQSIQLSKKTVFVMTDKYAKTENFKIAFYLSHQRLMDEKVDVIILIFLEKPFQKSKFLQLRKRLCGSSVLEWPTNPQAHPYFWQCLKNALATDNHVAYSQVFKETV
The experiment in a line: Human PBMC cell-based assay, TLR7 agonist stimulation. Particulars: human PBMCs, read-out: TLR-7 EC50.
From the text: as §1, §2, §3

Where [3] appears, read: TLR9 agonist ODN-2216 3 μM, 6 hours, cytokines (IL-6 and IFNα) in supernatant, Table 2.
[4] abbreviates: TLR7 agonist GS-986 400 nM, 6 hours, cytokines (IL-6 and IFNα) in supernatant, Table 2.
Setting [5] is: same protocol as Example A, Table 3 comparison.

`Cc1cc(-c2ccc3c(C)c(-c4cnc(N5CCNCC5)nc4)[nH]c3c2)cc(C)n1` [Example 1, 6-(2,6-dimethylpyridin-4-yl)-3-methyl-2-(2-(piperazin-1-yl)pyrimidin-5-yl)-1H-indole]: the pEC50 (commonly the EC50 on a negative log10 scale, so that one unit is a factor of ten) was 7.46 in experiment [1] (setting [3]) and 8.14 in experiment [2] (setting [4]).

Regarding `Cc1cc(-c2ccc3c(C)c(-c4ccc(N5CCNCC5)nc4)[nH]c3c2)cc(C)n1` [Example 2, 6-(2,6-dimethylpyridin-4-yl)-3-methyl-2-(6-(piperazin-1-yl)pyridin-3-yl)-1H-indole], the pEC50 in experiment [1] (setting [3]) is 7.48; in experiment [2] (setting [4]), 8.17.

As for `Cc1c(-c2ccc(N3CCNCC3)nc2)[nH]c2cc(-c3cc(C)c4ncnn4c3)ccc12` [Example 4], the values for the pEC50 in experiment [1] (setting [3]) and in experiment [2] (setting [4]) were 6.49 and 8.85, respectively.

As for `Cc1c(-c2ccc(N3CCNCC3)nc2)[nH]c2cc(-c3ccc(C#N)c4ncccc34)ccc12` [Example 7], the figures for the pEC50 in experiment [1] (setting [3]) and in experiment [2] (setting [4]) were 6.29 and 9.30, respectively.

Take `CCc1c(-c2ccc(N3CCNCC3)nc2)[nH]c2cc(-c3cc(C)c4ncnn4c3)ccc12` [Example 23]: the pEC50 was 6.52 in experiment [1] (setting [3]) and 9.30 in experiment [2] (setting [4]).

On to `Cc1cc(-c2[nH]c3ccc(-c4ccc(N5CCNCC5)nc4)cc3c2C(C)C)cc(C)n1` [Example A, reference compound], for which the pEC50 in experiment [1] (setting [5]) is 6.58; in experiment [2] (setting [5]), 8.41.

With `Cc1cc(-c2[nH]c3ccc(-c4ccc(N5CCNCC5)nc4)cc3c2C(C)C)cn2ncnc12` [Example B, reference compound], the pEC50 in experiment [1] (setting [5]) is 6.14; in experiment [2] (setting [5]) it was 9.30.
